Measured values taken from ChEMBL document CHEMBL1806418, “Azepanone-based inhibitors of human cathepsin S: optimization of selectivity via the P2 substituent” (Bioorg Med Chem Lett, 2011).

target: T1, Procathepsin L (Homo sapiens, UniProt P07711); experiment: Inhibition of human cathepsin L using Z-Phe-Arg-AMC as substrate after 1 hr by fluorescence assay; settings: read-out: Ki(app)
T1 sequence (P07711 whole entry): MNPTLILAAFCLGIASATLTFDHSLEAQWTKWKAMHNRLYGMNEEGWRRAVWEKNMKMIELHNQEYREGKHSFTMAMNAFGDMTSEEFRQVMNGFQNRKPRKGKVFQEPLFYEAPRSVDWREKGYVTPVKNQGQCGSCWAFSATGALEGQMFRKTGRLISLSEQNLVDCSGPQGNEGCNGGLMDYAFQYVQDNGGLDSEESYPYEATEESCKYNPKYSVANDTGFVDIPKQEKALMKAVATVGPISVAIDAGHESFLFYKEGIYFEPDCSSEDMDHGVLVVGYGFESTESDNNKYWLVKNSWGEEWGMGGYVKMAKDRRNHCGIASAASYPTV

Row | Structure (SMILES) | Ki
1 | CC(C)C[C@H](NC(=O)c1cc2cc(OCCN3CCOCC3)ccc2o1)C(=O)N[C@H]1CCCN(C(=O)Cc2cccc(-c3ccccn3)c2)CC1=O | 1.2 nM

target: T2, Cathepsin S (Homo sapiens, UniProt P25774); experiment: Inhibition of human recombinant cathepsin S using Ac-KQLR-AMC as substrate by fluorescence assay; settings: not given
T2 sequence (P25774 whole entry): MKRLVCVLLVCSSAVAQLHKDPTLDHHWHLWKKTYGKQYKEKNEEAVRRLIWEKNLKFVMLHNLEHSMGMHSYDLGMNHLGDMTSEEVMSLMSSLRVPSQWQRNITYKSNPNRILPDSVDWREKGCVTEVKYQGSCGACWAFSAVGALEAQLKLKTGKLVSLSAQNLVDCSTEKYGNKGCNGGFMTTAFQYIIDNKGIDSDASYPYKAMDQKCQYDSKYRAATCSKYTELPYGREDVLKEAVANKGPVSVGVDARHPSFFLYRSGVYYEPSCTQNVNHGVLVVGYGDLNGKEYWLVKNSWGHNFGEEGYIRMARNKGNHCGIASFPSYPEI

Row | Structure (SMILES) | IC50
2 | C[C@@H]1CC[C@H](NC(=O)[C@H](CC2=CCCC2)NC(=O)c2ccco2)C(=O)CN1S(=O)(=O)c1ccccn1 | 4.9 nM
3 | C[C@@H]1CC[C@H](NC(=O)[C@H](CC2CCCC2)NC(=O)c2ccco2)C(=O)CN1S(=O)(=O)c1ccccn1 | 0.76 nM
4 | C[C@@H]1CC[C@H](NC(=O)[C@H](CC2CCCCC2)NC(=O)c2ccco2)C(=O)CN1S(=O)(=O)c1ccccn1 | 0.5 nM
5 | C[C@@H]1CC[C@H](NC(=O)[C@H](CC2CCCCCC2)NC(=O)c2ccco2)C(=O)CN1S(=O)(=O)c1ccccn1 | < 0.4 nM
6 | CC(C)C[C@H](NC(=O)c1ccco1)C(=O)N[C@H]1CC[C@@H](C)N(S(=O)(=O)c2ccccn2)CC1=O | 2.9 nM
7 | C[C@@H]1CC[C@H](NC(=O)[C@H](CC(C)(C)C)NC(=O)c2ccco2)C(=O)CN1S(=O)(=O)c1ccccn1 | 1.3 nM
8 | C[C@@H]1CC[C@H](NC(=O)[C@H](CC2(C)CCCC2)NC(=O)c2ccco2)C(=O)CN1S(=O)(=O)c1ccccn1 | < 0.4 nM
9 | C[C@@H]1CC[C@H](NC(=O)[C@H](CC2(C)CCCCC2)NC(=O)c2ccco2)C(=O)CN1S(=O)(=O)c1ccccn1 | < 0.4 nM
10 | C[C@@H]1CC[C@H](NC(=O)[C@@H](CC2(C)CCCC2)NC(=O)c2ccco2)C(=O)CN1S(=O)(=O)c1ccccn1 | 101 nM
11 | C[C@@H]1CC[C@H](NC(=O)[C@@H](CC2(C)CCCCC2)NC(=O)c2ccco2)C(=O)CN1S(=O)(=O)c1ccccn1 | 37 nM
12 | C[C@@H]1CC[C@H](NC(=O)[C@H](CCC2CCCC2)NC(=O)c2ccco2)C(=O)CN1S(=O)(=O)c1ccccn1 | 1.9 nM
13 | CC1CCC(C[C@H](NC(=O)c2ccco2)C(=O)N[C@H]2CC[C@@H](C)N(S(=O)(=O)c3ccccn3)CC2=O)CC1 (stereo not given in full) | 0.5 nM
14 | C[C@@H]1CC[C@H](NC(=O)[C@H](CC2CCC(C)(C)CC2)NC(=O)c2ccco2)C(=O)CN1S(=O)(=O)c1ccccn1 | 1.2 nM
15 | C[C@@H]1CC[C@H](NC(=O)[C@H](CCC2CCCC2)NC(=O)N2CCOCC2)C(=O)CN1S(=O)(=O)c1ccccn1 | 0.58 nM
16 | C[C@@H]1CC[C@H](NC(=O)[C@H](CC2(C)CCCCC2)NC(=O)N2CCOCC2)C(=O)CN1S(=O)(=O)c1ccccn1 | < 0.4 nM
17 | C[C@@H]1CC[C@H](NC(=O)[C@H](CC23CCC(CC2)C3(C)C)NC(=O)N2CCOCC2)C(=O)CN1S(=O)(=O)c1ccccn1 | 1.5 nM
18 | C[C@@H]1CC[C@H](NC(=O)[C@H](CC2(C)CCCCC2)NC(=O)c2ccco2)C(=O)CN1C(=O)c1ccccn1 | 1.5 nM
19 | CC(C)C[C@H](NC(=O)c1ccco1)C(=O)N[C@H]1CC[C@@H](C)N(C(=O)c2ccccn2)CC1=O | 31.6 nM
20 | CC(C)C[C@H](NC(=O)c1cc2cc(OCCN3CCOCC3)ccc2o1)C(=O)N[C@H]1CCCN(C(=O)Cc2cccc(-c3ccccn3)c2)CC1=O | 8.3 nM

target: T1, Procathepsin L; experiment: Inhibition of human recombinant cathepsin L using Z-LR-AMC as substrate by fluorescence assay; settings: not given

Row | Structure (SMILES) | IC50
21 | C[C@@H]1CC[C@H](NC(=O)[C@H](CC2=CCCC2)NC(=O)c2ccco2)C(=O)CN1S(=O)(=O)c1ccccn1 | 3.8 nM
22 | C[C@@H]1CC[C@H](NC(=O)[C@H](CC2CCCC2)NC(=O)c2ccco2)C(=O)CN1S(=O)(=O)c1ccccn1 | 4.8 nM
23 | C[C@@H]1CC[C@H](NC(=O)[C@H](CC2CCCCC2)NC(=O)c2ccco2)C(=O)CN1S(=O)(=O)c1ccccn1 | 1.2 nM
24 | C[C@@H]1CC[C@H](NC(=O)[C@H](CC2CCCCCC2)NC(=O)c2ccco2)C(=O)CN1S(=O)(=O)c1ccccn1 | < 0.4 nM
25 | CC(C)C[C@H](NC(=O)c1ccco1)C(=O)N[C@H]1CC[C@@H](C)N(S(=O)(=O)c2ccccn2)CC1=O | 0.53 nM
26 | C[C@@H]1CC[C@H](NC(=O)[C@H](CC(C)(C)C)NC(=O)c2ccco2)C(=O)CN1S(=O)(=O)c1ccccn1 | 11.5 nM
27 | C[C@@H]1CC[C@H](NC(=O)[C@H](CC2(C)CCCC2)NC(=O)c2ccco2)C(=O)CN1S(=O)(=O)c1ccccn1 | 22.4 nM
28 | C[C@@H]1CC[C@H](NC(=O)[C@H](CC2(C)CCCCC2)NC(=O)c2ccco2)C(=O)CN1S(=O)(=O)c1ccccn1 | 31.9 nM
29 | C[C@@H]1CC[C@H](NC(=O)[C@@H](CC2(C)CCCC2)NC(=O)c2ccco2)C(=O)CN1S(=O)(=O)c1ccccn1 | 4400 nM
30 | C[C@@H]1CC[C@H](NC(=O)[C@@H](CC2(C)CCCCC2)NC(=O)c2ccco2)C(=O)CN1S(=O)(=O)c1ccccn1 | 1700 nM
31 | C[C@@H]1CC[C@H](NC(=O)[C@H](CCC2CCCC2)NC(=O)c2ccco2)C(=O)CN1S(=O)(=O)c1ccccn1 | 10.7 nM
32 | CC1CCC(C[C@H](NC(=O)c2ccco2)C(=O)N[C@H]2CC[C@@H](C)N(S(=O)(=O)c3ccccn3)CC2=O)CC1 (stereo not given in full) | 1 nM
33 | C[C@@H]1CC[C@H](NC(=O)[C@H](CC2CCC(C)(C)CC2)NC(=O)c2ccco2)C(=O)CN1S(=O)(=O)c1ccccn1 | 58.5 nM
34 | C[C@@H]1CC[C@H](NC(=O)[C@H](CCC2CCCC2)NC(=O)N2CCOCC2)C(=O)CN1S(=O)(=O)c1ccccn1 | 10.8 nM
35 | C[C@@H]1CC[C@H](NC(=O)[C@H](CC2(C)CCCCC2)NC(=O)N2CCOCC2)C(=O)CN1S(=O)(=O)c1ccccn1 | 48.7 nM
36 | C[C@@H]1CC[C@H](NC(=O)[C@H](CC23CCC(CC2)C3(C)C)NC(=O)N2CCOCC2)C(=O)CN1S(=O)(=O)c1ccccn1 | 139 nM
37 | C[C@@H]1CC[C@H](NC(=O)[C@H](CC2(C)CCCCC2)NC(=O)c2ccco2)C(=O)CN1C(=O)c1ccccn1 | 429 nM
38 | CC(C)C[C@H](NC(=O)c1ccco1)C(=O)N[C@H]1CC[C@@H](C)N(C(=O)c2ccccn2)CC1=O | 10 nM

target: T3, Cathepsin K (Homo sapiens, UniProt P43235); experiment: Inhibition of human recombinant cathepsin K using z-LR-AFC as substrate by fluorescence assay; settings: not given
T3 sequence (P43235 whole entry): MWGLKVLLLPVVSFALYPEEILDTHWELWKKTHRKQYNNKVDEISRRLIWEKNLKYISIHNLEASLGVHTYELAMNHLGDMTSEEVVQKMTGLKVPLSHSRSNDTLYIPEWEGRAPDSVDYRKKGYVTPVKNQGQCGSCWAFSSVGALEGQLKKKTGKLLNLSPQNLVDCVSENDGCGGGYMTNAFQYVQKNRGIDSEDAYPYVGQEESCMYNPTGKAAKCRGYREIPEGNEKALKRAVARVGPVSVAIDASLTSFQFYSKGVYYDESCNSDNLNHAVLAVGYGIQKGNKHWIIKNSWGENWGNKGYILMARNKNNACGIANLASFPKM

Row | Structure (SMILES) | IC50
39 | C[C@@H]1CC[C@H](NC(=O)[C@H](CC2=CCCC2)NC(=O)c2ccco2)C(=O)CN1S(=O)(=O)c1ccccn1 | 9 nM
40 | C[C@@H]1CC[C@H](NC(=O)[C@H](CC2CCCC2)NC(=O)c2ccco2)C(=O)CN1S(=O)(=O)c1ccccn1 | 27.7 nM
41 | C[C@@H]1CC[C@H](NC(=O)[C@H](CC2CCCCC2)NC(=O)c2ccco2)C(=O)CN1S(=O)(=O)c1ccccn1 | 40.5 nM
42 | C[C@@H]1CC[C@H](NC(=O)[C@H](CC2CCCCCC2)NC(=O)c2ccco2)C(=O)CN1S(=O)(=O)c1ccccn1 | 28.2 nM
43 | CC(C)C[C@H](NC(=O)c1ccco1)C(=O)N[C@H]1CC[C@@H](C)N(S(=O)(=O)c2ccccn2)CC1=O | 1 nM
44 | C[C@@H]1CC[C@H](NC(=O)[C@H](CC(C)(C)C)NC(=O)c2ccco2)C(=O)CN1S(=O)(=O)c1ccccn1 | 4.7 nM
45 | C[C@@H]1CC[C@H](NC(=O)[C@H](CC2(C)CCCC2)NC(=O)c2ccco2)C(=O)CN1S(=O)(=O)c1ccccn1 | 11.2 nM
46 | C[C@@H]1CC[C@H](NC(=O)[C@H](CC2(C)CCCCC2)NC(=O)c2ccco2)C(=O)CN1S(=O)(=O)c1ccccn1 | 44.5 nM
47 | C[C@@H]1CC[C@H](NC(=O)[C@@H](CC2(C)CCCC2)NC(=O)c2ccco2)C(=O)CN1S(=O)(=O)c1ccccn1 | 1900 nM
48 | C[C@@H]1CC[C@H](NC(=O)[C@@H](CC2(C)CCCCC2)NC(=O)c2ccco2)C(=O)CN1S(=O)(=O)c1ccccn1 | 2300 nM
49 | C[C@@H]1CC[C@H](NC(=O)[C@H](CCC2CCCC2)NC(=O)c2ccco2)C(=O)CN1S(=O)(=O)c1ccccn1 | 840 nM
50 | CC1CCC(C[C@H](NC(=O)c2ccco2)C(=O)N[C@H]2CC[C@@H](C)N(S(=O)(=O)c3ccccn3)CC2=O)CC1 (stereo not given in full) | 450 nM
51 | C[C@@H]1CC[C@H](NC(=O)[C@H](CC2CCC(C)(C)CC2)NC(=O)c2ccco2)C(=O)CN1S(=O)(=O)c1ccccn1 | 6200 nM
52 | C[C@@H]1CC[C@H](NC(=O)[C@H](CCC2CCCC2)NC(=O)N2CCOCC2)C(=O)CN1S(=O)(=O)c1ccccn1 | 1100 nM
53 | C[C@@H]1CC[C@H](NC(=O)[C@H](CC2(C)CCCCC2)NC(=O)N2CCOCC2)C(=O)CN1S(=O)(=O)c1ccccn1 | 136 nM
54 | C[C@@H]1CC[C@H](NC(=O)[C@H](CC23CCC(CC2)C3(C)C)NC(=O)N2CCOCC2)C(=O)CN1S(=O)(=O)c1ccccn1 | 174 nM
55 | C[C@@H]1CC[C@H](NC(=O)[C@H](CC2(C)CCCCC2)NC(=O)c2ccco2)C(=O)CN1C(=O)c1ccccn1 | 263 nM
56 | CC(C)C[C@H](NC(=O)c1ccco1)C(=O)N[C@H]1CC[C@@H](C)N(C(=O)c2ccccn2)CC1=O | 10 nM

target: T2, Cathepsin S; experiment: Inhibition of human cathepsin S using Z-Lys-Gln-Lys-Leu-Arg-AMC as substrate after 1 hr by fluorescence assay; settings: read-out: Ki(app)

Row | Structure (SMILES) | Ki
57 | CC(C)C[C@H](NC(=O)c1cc2cc(OCCN3CCOCC3)ccc2o1)C(=O)N[C@H]1CCCN(C(=O)Cc2cccc(-c3ccccn3)c2)CC1=O | 8.3 nM

target: T2, Cathepsin S; experiment: Inhibition of cathepsin S in human Raji cells assessed as decrease in cell surface expression of MHC class 2/CLIP by flow cytometric analysis; type: cell-based; settings: not given

Row | Structure (SMILES) | IC50
58 | C[C@@H]1CC[C@H](NC(=O)[C@H](CC2CCCCC2)NC(=O)c2ccco2)C(=O)CN1S(=O)(=O)c1ccccn1 | 1780 nM
59 | C[C@@H]1CC[C@H](NC(=O)[C@H](CC(C)(C)C)NC(=O)c2ccco2)C(=O)CN1S(=O)(=O)c1ccccn1 | 4800 nM
60 | C[C@@H]1CC[C@H](NC(=O)[C@H](CC2(C)CCCCC2)NC(=O)c2ccco2)C(=O)CN1S(=O)(=O)c1ccccn1 | 1400 nM
61 | C[C@@H]1CC[C@H](NC(=O)[C@H](CC2(C)CCCCC2)NC(=O)N2CCOCC2)C(=O)CN1S(=O)(=O)c1ccccn1 | 570 nM
62 | C[C@@H]1CC[C@H](NC(=O)[C@H](CC2(C)CCCCC2)NC(=O)c2ccco2)C(=O)CN1C(=O)c1ccccn1 | 3880 nM
63 | CC(C)C[C@H](NC(=O)c1cc2cc(OCCN3CCOCC3)ccc2o1)C(=O)N[C@H]1CCCN(C(=O)Cc2cccc(-c3ccccn3)c2)CC1=O | 940 nM

target: T3, Cathepsin K; experiment: Inhibition of human cathepsin K using Z-Lys-Gln-Lys-Leu-Arg-AMC as substrate after 1 hr by fluorescence assay; settings: read-out: Ki(app)

Row | Structure (SMILES) | Ki
64 | O=C(N[C@@H](Cc1ccc2ccccc2c1)C(=O)N[C@H]1CCCN(S(=O)(=O)c2ccccn2)CC1=O)c1cccc2ccccc12 | > 10000 nM
65 | CC(C)C[C@H](NC(=O)c1cc2cc(OCCN3CCOCC3)ccc2o1)C(=O)N[C@H]1CCCN(C(=O)Cc2cccc(-c3ccccn3)c2)CC1=O | 0.1 nM
